# How the values were obtained:
# giant foxtail = experiment: Test B pre/postemergence giant foxtail; type: in vivo, Setaria faberii
# Summary of the method: (§1)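 Herbicidal effect was estimated by eye on a ten-point control scale after plants spent twelve to sixteen days in a greenhouse following soil or foliar treatment. Foliar sprays targeted plants at one to four leaves; all doses were formulated in a non-phytotoxic solvent with surfactant.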
# bedstraw = experiment: Test B pre/postemergence bedstraw; type: in vivo, Galium aparine
# Summary of the method: as §1
# velvetleaf = experiment: Test B pre/postemergence velvetleaf; type: in vivo, Abutilon theophrasti
# Summary of the method: as §1
# pigweed = experiment: Test B pre/postemergence pigweed; type: in vivo, Amaranthus retroflexus
# Summary of the method: as §1
# purple nutsedge = experiment: Test B pre/postemergence purple nutsedge; type: in vivo, Cyperus rotundus
# Summary of the method: as §1
# crabgrass = experiment: Test B pre/postemergence crabgrass; type: in vivo, Digitaria sanguinalis
# Summary of the method: as §1
# wheat = experiment: Test B pre/postemergence wheat; type: in vivo, Triticum aestivum
# Summary of the method: as §1
# duck salad = experiment: Test B flood test duck salad; type: in vivo, Heteranthera limosa
# Summary of the method: (§2)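 Plants were grown to the 2-leaf stage before treatment with test chemical, then held in a greenhouse for twelve to sixteen days. Injury was visually rated against untreated controls on a 0–10 scale, where 0 is no effect and 10 is complete control.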
# cocklebur = experiment: Test B pre/postemergence cocklebur; type: in vivo, Xanthium strumarium
# Summary of the method: as §1
# corn = experiment: Test B pre/postemergence corn; type: in vivo, Zea mays
# Summary of the method: as §1
# rice = experiment: Test B flood test rice; type: in vivo, Oryza sativa
# Summary of the method: as §2
# soybean = experiment: Test B pre/postemergence soybean; type: in vivo, Glycine max
# Summary of the method: as §1
# sugar beet = experiment: Test B pre/postemergence sugar beet; type: in vivo, Beta vulgaris
# Summary of the method: as §1
# surinam grass = experiment: Test B pre/postemergence surinam grass; type: in vivo, Brachiaria decumbens
# Summary of the method: as §1
# wild oat = experiment: Test B pre/postemergence wild oat; type: in vivo, Avena fatua
# Summary of the method: as §1
# blackgrass = experiment: Test B pre/postemergence blackgrass; type: in vivo, Alopecurus myosuroides
# Summary of the method: as §1
# [1] = Preemergence, Rate 31 g/ha, visual rating, scale 0 to 10 (0 no effect, 10 complete control)
# [2] = Preemergence, Rate 62 g/ha, scale of 0 to 10 where 0 is no effect and 10 is complete control
# [3] = Preemergence, Rate 250 g/ha, scale of 0 to 10 where 0 is no effect and 10 is complete control
# [4] = Rate 31 g/ha, Postemergence, scale 0 to 10
# [5] = Rate 62 g/ha, Postemergence, scale 0 to 10, 0 no effect, 10 complete control
# [6] = Rate 125 g/ha, Postemergence, scale of 0 to 10 where 0 is no effect and 10 is complete control
# [7] = Rate 125 g/ha, Preemergence, scale of 0 to 10 where 0 is no effect and 10 is complete control
# [8] = Rate 250 g/ha, Postemergence, scale of 0 to 10 where 0 is no effect and 10 is complete control
# [9] = Rate 31 g/ha, Pre-emergence section (flood test species), scale 0 to 10
# [10] = Rate 62 g/ha, headed Pre-emergence (flood test species), scale 0 to 10 (0 no effect, 10 complete control)
# [11] = Rate 125 g/ha, Pre-emergence, flood test species, scale 0 to 10 where 0 is no effect and 10 is complete control
# [12] = Rate 250 g/ha, Pre-emergence, flood-test species, scale 0 to 10, 0 is no effect, 10 is complete control
structure (smiles),measurement,setting,value
CC(Cl)=CCn1c(=O)on(C(=O)N(c2ccc(F)cc2)C(C)C)c1=O [Compound 285],Giant foxtail plant response rating,giant foxtail; [1],7
same,Giant foxtail plant response rating,giant foxtail; [2],8
same,Giant foxtail plant response rating,giant foxtail; [3],10
same,Giant foxtail plant response rating,giant foxtail; [4],0
same,Giant foxtail plant response rating,giant foxtail; [5],0
same,Giant foxtail plant response rating,giant foxtail; [6],0
same,Giant foxtail plant response rating,giant foxtail; [7],9
same,"Plant response rating, Giant foxtail",giant foxtail; [8],0
same,Bedstraw plant response rating,bedstraw; [1],0
same,Bedstraw plant response rating,bedstraw; [2],0
same,Bedstraw plant response rating,bedstraw; [3],8
same,Bedstraw plant response rating,bedstraw; [4],0
same,Bedstraw plant response rating,bedstraw; [5],0
same,Bedstraw plant response rating,bedstraw; [6],5
same,Bedstraw plant response rating,bedstraw; [7],0
same,"Plant response rating, Bedstraw",bedstraw; [8],7
same,Velvetleaf plant response rating,velvetleaf; [1],0
same,Velvetleaf plant response rating,velvetleaf; [2],0
same,Velvetleaf plant response rating,velvetleaf; [3],3
same,Velvetleaf plant response rating,velvetleaf; [5],0
same,Velvetleaf plant response rating,velvetleaf; [6],0
same,Velvetleaf plant response rating,velvetleaf; [7],2
same,"Plant response rating, Velvetleaf",velvetleaf; [8],1
same,Redroot pigweed plant response rating,pigweed; [1],0
same,Redroot pigweed plant response rating,pigweed; [2],0
same,Redroot pigweed plant response rating,pigweed; [3],5
same,Redroot pigweed plant response rating,pigweed; [4],0
same,Redroot pigweed plant response rating,pigweed; [5],0
same,Redroot pigweed plant response rating,pigweed; [6],0
same,Redroot pigweed plant response rating,pigweed; [7],2
same,"Plant response rating, Redroot pigweed",pigweed; [8],0
same,Nutsedge plant response rating,purple nutsedge; [1],0
same,Nutsedge plant response rating,purple nutsedge; [2],0
same,Nutsedge plant response rating,purple nutsedge; [3],0
same,Nutsedge plant response rating,purple nutsedge; [4],0
same,Nutsedge plant response rating,purple nutsedge; [5],0
same,Nutsedge plant response rating,purple nutsedge; [6],0
same,Nutsedge plant response rating,purple nutsedge; [7],0
same,"Plant response rating, Nutsedge",purple nutsedge; [8],0
same,Crabgrass plant response rating,crabgrass; [1],0
same,Crabgrass plant response rating,crabgrass; [2],4
same,Crabgrass plant response rating,crabgrass; [3],8
same,Crabgrass plant response rating,crabgrass; [4],0
same,Crabgrass plant response rating,crabgrass; [5],0
same,Crabgrass plant response rating,crabgrass; [6],3
same,Crabgrass plant response rating,crabgrass; [7],8
same,"Plant response rating, Crabgrass",crabgrass; [8],7
same,Wheat plant response rating,wheat; [1],0
same,Wheat plant response rating,wheat; [2],0
same,Wheat plant response rating,wheat; [3],0
same,Wheat plant response rating,wheat; [5],0
same,Wheat plant response rating,wheat; [6],0
same,Wheat plant response rating,wheat; [7],0
same,"Plant response rating, Wheat",wheat; [8],0
same,Ducksalad plant response rating,duck salad; [9],0
same,Ducksalad plant response rating,duck salad; [10],0
same,Ducksalad plant response rating,duck salad; [11],0
same,Ducksalad plant response rating,duck salad; [12],0
same,Cocklebur plant response rating,cocklebur; [1],0
same,Cocklebur plant response rating,cocklebur; [2],0
same,Cocklebur plant response rating,cocklebur; [3],0
same,Cocklebur plant response rating,cocklebur; [4],0
same,Cocklebur plant response rating,cocklebur; [5],0
same,Cocklebur plant response rating,cocklebur; [6],0
same,Cocklebur plant response rating,cocklebur; [7],0
same,"Plant response rating, Cocklebur",cocklebur; [8],0
same,Corn plant response rating,corn; [1],0
same,Corn plant response rating,corn; [2],0
same,Corn plant response rating,corn; [3],0
same,Corn plant response rating,corn; [4],0
same,Corn plant response rating,corn; [5],0
same,Corn plant response rating,corn; [6],0
same,Corn plant response rating,corn; [7],0
same,"Plant response rating, Corn",corn; [8],0
same,Rice plant response rating,rice; [9],0
same,Rice plant response rating,rice; [10],0
same,Rice plant response rating,rice; [11],0
same,Rice plant response rating,rice; [12],0
same,Soybean plant response rating,soybean; [1],0
same,Soybean plant response rating,soybean; [2],0
same,Soybean plant response rating,soybean; [3],0
same,Soybean plant response rating,soybean; [5],2
same,Soybean plant response rating,soybean; [6],2
same,Soybean plant response rating,soybean; [7],0
same,"Plant response rating, Soybean",soybean; [8],3
same,Sugarbeets plant response rating,sugar beet; [1],0
same,Sugarbeets plant response rating,sugar beet; [2],0
same,Sugarbeets plant response rating,sugar beet; [3],0
same,Sugarbeets plant response rating,sugar beet; [5],0
same,Sugarbeets plant response rating,sugar beet; [6],2
same,Sugarbeets plant response rating,sugar beet; [7],0
same,"Plant response rating, Sugarbeets",sugar beet; [8],3
same,B. signalgrass plant response rating,surinam grass; [1],0
same,B. signalgrass plant response rating,surinam grass; [2],2
same,B. signalgrass plant response rating,surinam grass; [3],10
same,B. signalgrass plant response rating,surinam grass; [4],0
same,B. signalgrass plant response rating,surinam grass; [5],0
same,B. signalgrass plant response rating,surinam grass; [6],0
same,B. signalgrass plant response rating,surinam grass; [7],5
same,"Plant response rating, B. signalgrass",surinam grass; [8],0
same,Wild oats plant response rating,wild oat; [1],0
same,Wild oats plant response rating,wild oat; [2],0
same,Wild oats plant response rating,wild oat; [3],3
same,Wild oats plant response rating,wild oat; [5],0
same,Wild oats plant response rating,wild oat; [6],0
same,"Plant response rating, Wild oats",wild oat; [8],0
same,Blackgrass plant response rating,blackgrass; [1],0
same,Blackgrass plant response rating,blackgrass; [2],0
same,Blackgrass plant response rating,blackgrass; [3],5
same,Blackgrass plant response rating,blackgrass; [4],0
same,Blackgrass plant response rating,blackgrass; [5],0
same,Blackgrass plant response rating,blackgrass; [6],2
same,Blackgrass plant response rating,blackgrass; [7],4
same,"Plant response rating, Blackgrass",blackgrass; [8],7

# Reference: patent US6737383B1, “Herbicidal oxadiazolidines” (priority 1999, dated 2004)
